Test results published in patent US10301314B2, “Compounds and methods for the prevention and treatment of tumor metastasis and tumorigenesis” (The United States of America, as represented by the …, priority 2011, dated 2019).

Key:
[1] = test system: PC3M cell line that stably expresses GFP-PTB to mark PNCs; assay: High content assay for PNC detection (reduction of PNC prevalence); type: cell-based, human; details: Table 4, PC3M GFP-PTB cells, 16 hrs incubation; for IC50: Homo sapiens, PC-3M
Excerpt: The quantitative output for this assay is the reduction of PNC prevalence. The PNC can be detected in living cells by the expression of a green fluorescent protein (GFP) tagged to the PNC localized protein, PTB. A PC3M cell line was used that stably expresses GFP-PTB to mark PNCs. This method eliminates the need for immunofluorescent staining.
The IN Cell Analyzer 1000 automated fluorescent imaging system (GE Healthcare, Piscataway, N.J.) was used for automated image acquisition. […] The instrument acquired images of each well in a 1536-well plate with a laser-based autofocus system. To score PNC prevalence in a high-content throughput, the Multi-Target Analysis (MTA) algorithm (GE Healthcare, Investigator v3.5) to identify individual cells and granules (PNCs) within these cells was used. The nucleus was segmented via a region growing method (50 μm^2 minimum area) with light shading and noise removal to allow “touching” nuclei to be separated. Granules in the nucleus (PNCs) were segmented using a multiscale top hat method, which measures granules of 1 to 2 μm in size and used a smart masking method to identify the boundaries of each segmented granule. The algorithm was optimized and validated using positive and negative controls (50 μM camptothecin and DMSO, respectively). In particular, the MTA algorithm allows for the identification of multiple subcellular compartments and organelles (or granules) within those compartments. In this instance, the algorithm's capability to identify objects within the same color channel that only differ in size or fluorescent intensity was utilized. Also, the algorithm allows for building complex hierarchical classification systems, using output measures within the algorithm to filter and define subpopulations. For this particular assay, PNC-positive cells were scored when 1 to 3 PNC granules were detected per nucleus. Cells that contained 0 granules were scored as PNC negative, and cells with >3 granules were assumed to be false positives (very few cells have more than 3 PNCs in one focus plane), and were also scored as PNC negative.

[2] = test system: PC3M reporter cell line stably expressing the PTB-GFP; assay: ATP quantitation assay (ATPLite); type: cell-based, human; details: Table 4, PC3M cells, 24 hrs incubation; for IC50: Homo sapiens, PC-3M
Procedure: This follow-up assay was conducted to measure the effect of compounds on cell health by measuring ATP levels (ATPLite™). ATPLite™ is an ATP monitoring system based on firefly (Photinus pyralis) luciferase. The level of ATP in a metabolically active cell is a general marker for its viability. ATP levels are often reduced during necrosis or apoptosis. In this assay, the luciferase enzyme catalyzes the conversion of the added substrate D-luciferin to oxyluciferin and light with ATP. Thus, the emitted light is proportional to the ATP concentration. For this assay, the highly metastatic PC3M reporter cell line stably expressing the PTB-GFP was provided by Professor Sui Huang of Northwestern University. The media and cell culture reagents were purchased from Invitrogen (Carlsbad, Calif.), ATPLite™ came from PerkinElmer.

N=c1c2c(-c3ccccc3)c(-c3ccccc3)n(CCc3ccccc3)c2ncn1C[C@H]1CCCC[C@@H]1O [Compound 62] gave an IC50 [1] of 0.148 µM and an IC50 [2] of 24.1 µM.

N=c1c2c(-c3ccccc3)c(-c3ccccc3)n(Cc3ccccc3)c2ncn1C1CCCC[C@H]1O (stereo partly shown) [Compound 63] gave an IC50 [1] of 0.148 µM and an IC50 [2] of 19.2 µM.

N=c1c2c(-c3ccccc3)c(-c3ccccc3)n(CC3CCCCC3)c2ncn1C1CCOCC1 [Compound 60] showed an IC50 [1] of 0.118 µM and an IC50 [2] of 24.1 µM.

In the case of COc1ccc(Cn2c(-c3ccccc3)c(-c3ccccc3)c3c(=N)n([C@H](C)[C@@H](O)c4ccccc4)cnc32)cc1 [Compound 112], the “PNC IC50(μM)” value [1] is reported as “inactive” and the IC50 [2] is reported as 60.7 µM.

Work on COc1ccc(CCn2cnc3c(c(-c4ccccc4)c(-c4ccccc4)n3Cc3ccccc3)c2=N)cc1OC [Compound 46] yielded an IC50 [1] of 14.8 µM and an IC50 [2] of 24.1 µM.

Compound N=c1c2c(-c3ccccc3)c(-c3ccccc3)n(Cc3ccccc3)c2ncn1CC1CCOC1 (stereo not shown) [Compound 85] has an IC50 [1] of 2.96 µM and an IC50 [2] of 24.1 µM.

COc1ccc(-c2c(-c3ccc(OC)cc3)n(Cc3ccccc3)c3ncn([C@H]4CC[C@H](O)CC4)c(=N)c23)cc1 [Compound 94] gave an IC50 [1] of 9.35 µM and an IC50 [2] of 24.1 µM.

COC(=O)C[C@@H](C(=O)OC)n1cnc2c(c(-c3ccccc3)cn2Cc2ccccc2)c1=N [Compound 128] was tested, and the “PNC IC50(μM)” value [1] was “inactive” and the “ATP IC50(μM)” value [2] was “inactive”.

In the case of N=c1c2c(-c3ccccc3)c(-c3ccccc3)n(CCc3ccccc3)c2ncn1CCCO [Compound 9], the IC50 [1] is reported as 0.148 µM and the IC50 [2] is reported as 19.2 µM.

In the case of N=c1c2c(-c3ccccc3)c(-c3ccccc3)n(CCc3ccccc3)c2ncn1C1CCN(Cc2ccccc2)CC1 [Compound 24], the IC50 [1] is reported as 1.87 µM and the IC50 [2] is reported as 24.1 µM.

In the case of N=c1c2c(-c3ccccc3)c(-c3ccccc3)n(Cc3ccco3)c2ncn1CCN1CCOCC1 [Compound 50], the “PNC IC50(μM)” value [1] is reported as “inactive” and the IC50 [2] is reported as 32.4 µM.

For N=c1c2c(-c3ccccc3)c(-c3ccccc3)n(Cc3ccco3)c2ncn1CCCO [Compound 11], the IC50 [1] was 3.97 µM and the IC50 [2] was 64.6 µM.

For N=c1c2c(-c3ccccc3)c(-c3ccccc3)n(Cc3ccc(S(N)(=O)=O)cc3)c2ncn1CCCO [Compound 105], the IC50 [1] was 23.5 µM and the IC50 [2] was 304 µM.

N=c1c2c(-c3ccccc3)c(-c3ccccc3)n(Cc3ccc(OC(F)(F)F)cc3)c2ncn1[C@H]1CC[C@H](O)CC1 [Compound 70] gave an IC50 [1] of 0.372 µM and an IC50 [2] of 24.1 µM.

In the case of CCOC(CCCn1cnc2c(c(-c3ccccc3)c(-c3ccccc3)n2CCc2ccccc2)c1=N)OCC [Compound 32], the IC50 [1] is reported as 18.7 µM and the IC50 [2] is reported as 24.1 µM.

In the case of N=c1c2c(-c3ccccc3)cn(Cc3ccccc3)c2ncn1CCCCO [Compound 120], the “PNC IC50(μM)” value [1] is reported as “inactive” and the IC50 [2] is reported as 241 µM.

With COc1ccc(Cn2c(-c3ccccc3)c(-c3ccccc3)c3c(=N)n(CCCO)cnc32)cc1 [Compound 77] the IC50 [1] was 1.18 µM and the IC50 [2] was 96.1 µM.

Compound N=c1c2c(-c3ccccc3)c(-c3ccccc3)n(Cc3ccccc3)c2ncn1Cc1ccccc1 [Compound 44] has an IC50 [1] of 15.8 µM and an IC50 [2] of 19.9 µM.

N=c1c2c(-c3ccccc3)c(-c3ccccc3)n(Cc3ccccc3)c2ncn1C1CCCC[C@H]1CO (stereo partly shown) [Compound 66] showed an IC50 [1] of 0.296 µM and an IC50 [2] of 76.4 µM.

Compound N=c1c2c(-c3ccccc3)c(-c3ccccc3)n(CCc3ccccc3)c2ncn1C1CCCC[C@H]1O (stereo partly shown) [Compound 68] has an IC50 [1] of 0.296 µM and an IC50 [2] of 38.3 µM.

N=c1c2c(-c3ccccc3)c(-c3ccccc3)n(Cc3ccccc3)c2ncn1CC1CCCO1 (stereo not shown) [Compound 38] showed an IC50 [1] of 0.935 µM and an IC50 [2] of 96.1 µM.

N=c1c2c(-c3ccccc3)c(-c3ccccc3)n(Cc3ccccc3)c2ncn1C[C@@H]1CCCC[C@H]1O [Compound 73] gave an IC50 [1] of 0.59 µM and an IC50 [2] of 24.1 µM.

For N=c1c2c(-c3ccccc3)c(-c3ccccc3)n(Cc3ccccc3)c2ncn1CC1COC1 [Compound 126], the “PNC IC50(μM)” value [1] was “inactive” and the IC50 [2] was 96.1 µM.

CC(C)CCn1cnc2c(c(-c3ccccc3)c(-c3ccccc3)n2Cc2ccco2)c1=N [Compound 35] was tested, and the “PNC IC50(μM)” value [1] was “Inactive” and the IC50 [2] was 19.9 µM.

Compound N=c1c2c(-c3ccccc3)c(-c3ccccc3)n(Cc3ccco3)c2ncn1CCO [Compound 7] has an IC50 [1] of 0.628 µM and an IC50 [2] of 20.4 µM.

COCCn1cnc2c(c(-c3ccccc3)c(-c3ccccc3)n2CCc2ccccc2)c1=N [Compound 26] gave an IC50 [1] of 3.72 µM and an IC50 [2] of 60.7 µM.

N=c1c2c(-c3ccccc3)c(-c3ccccc3)n(CCc3ccccc3)c2ncn1CC1CCOCC1 [Compound 90] showed an IC50 [1] of 5.9 µM and an IC50 [2] of 76.4 µM.

With N=c1c2c(-c3ccccc3)cn(Cc3ccccc3)c2ncn1CC1CCCO1 (stereo not shown) [Compound 127] the “PNC IC50(μM)” value [1] was “inactive” and the IC50 [2] was 96.1 µM.

For C[C@H]([C@@H](O)c1ccccc1)n1cnc2c(c(-c3ccccc3)cn2Cc2ccccc2)c1=N [Compound 119], the “PNC IC50(μM)” value [1] was “inactive” and the IC50 [2] was 121 µM.

COc1ccc(-c2c(-c3ccc(OC)cc3)n(Cc3ccccc3)c3ncn(CC4COC4)c(=N)c23)cc1 [Compound 129] was tested, and the “PNC IC50(μM)” value [1] was “inactive” and the “ATP IC50(μM)” value [2] was “inactive”.

For N=c1c2c(-c3ccccc3)c(-c3ccccc3)n(CCc3ccccc3)c2ncn1[C@H](CO)Cc1ccccc1 [Compound 48], the IC50 [1] was 4.69 µM and the IC50 [2] was 30.4 µM.

In the case of COc1ccc(-c2c(-c3ccc(OC)cc3)n(Cc3ccccc3)c3ncn(C4CCCC[C@H]4O)c(=N)c23)cc1 (stereo partly shown) [Compound 100], the IC50 [1] is reported as 14.8 µM and the IC50 [2] is reported as 48.2 µM.

Compound N=c1c2c(-c3ccccc3)c(-c3ccccc3)n(CC3CC3)c2ncn1C1CCOCC1 [Compound 64] has an IC50 [1] of 0.187 µM and an IC50 [2] of 38.3 µM.

In the case of N=c1c2c(-c3ccccc3)cn(Cc3ccccc3)c2ncn1Cc1ccco1 [Compound 138], the “PNC IC50(μM)” value [1] is reported as “inactive” and the IC50 [2] is reported as 60.7 µM.

COc1ccc(Cn2c(-c3ccccc3)c(-c3ccccc3)c3c(=N)n(CCO)cnc32)cc1 [Compound 6] was tested, and the IC50 [1] was 1.48 µM and the IC50 [2] was 48.2 µM.

COc1ccc(-c2c(-c3ccc(OC)cc3)n(Cc3ccccc3)c3ncn([C@H]4CC[C@H](OC)CC4)c(=N)c23)cc1 [Compound 93] gave an IC50 [1] of 7.43 µM and an IC50 [2] of 60.7 µM.

N=c1c2c(-c3ccccc3)c(-c3ccccc3)n(Cc3ccco3)c2ncn1Cc1ccccc1 [Compound 102] showed an IC50 [1] of 15.8 µM and an IC50 [2] of 25.7 µM.

In the case of N=c1c2c(-c3ccccc3)cn(Cc3ccccc3)c2ncn1[C@@H]1CCCC[C@H]1N [Compound 117], the “PNC IC50(μM)” value [1] is reported as “inactive” and the IC50 [2] is reported as 96.1 µM.

CC[Si](CC)(CC)OCCCn1cnc2c(c(-c3ccccc3)cn2Cc2ccc(Br)cc2)c1=N [Compound 116] was tested, and the “PNC IC50(μM)” value [1] was “inactive” and the “ATP IC50(μM)” value [2] was “inactive”.

COCCn1cnc2c(c(-c3ccccc3)c(-c3ccccc3)n2Cc2ccc(OC)cc2)c1=N [Compound 27] gave an IC50 [1] of 1.18 µM and an IC50 [2] of 24.1 µM.

COC(=O)C[C@H](C(=O)OC)n1cnc2c(c(-c3ccccc3)cn2Cc2ccc(Br)cc2)c1=N [Compound 114] was tested, and the “PNC IC50(μM)” value [1] was “inactive” and the “ATP IC50(μM)” value [2] was “inactive”.

COc1ccc(Cn2c(-c3ccccc3)c(-c3ccccc3)c3c(=N)n(CCCCO)cnc32)cc1 [Compound 17] was tested, and the IC50 [1] was 1.18 µM and the IC50 [2] was 30.4 µM.

For N=c1c2c(-c3ccccc3)c(-c3ccccc3)n(Cc3ccccc3)c2ncn1[C@H](CO)Cc1ccccc1 [Compound 108], the IC50 [1] was 29.6 µM and the IC50 [2] was 38.3 µM.

For N=c1c2c(-c3ccccc3)cn(Cc3ccccc3)c2ncn1CCCO [Compound 118], the “PNC IC50(μM)” value [1] was “inactive” and the IC50 [2] was 121 µM.

COC(=O)c1cccc(Cn2cnc3c(c(-c4ccccc4)c(-c4ccccc4)n3CCc3ccccc3)c2=N)c1 [Compound 53] showed an IC50 [1] of 29.6 µM and an IC50 [2] of 24.1 µM.

N=c1c2c(-c3ccccc3)cn(Cc3ccccc3)c2ncn1CCNCCO [Compound 131] was tested, and the “PNC IC50(μM)” value [1] was “inactive” and the IC50 [2] was 121 µM.

Compound N=c1c2c(-c3ccccc3)c(-c3ccccc3)n(CCc3ccccc3)c2ncn1CCCCCO [Compound 16] has an IC50 [1] of 0.59 µM and an IC50 [2] of 38.3 µM.

N=c1c2c(-c3ccccc3)c(-c3ccccc3)n(CC3CC3)c2ncn1CCCO [Compound 81] gave an IC50 [1] of 1.87 µM and an IC50 [2] of 76.4 µM.

N=c1c2c(-c3ccccc3)c(-c3ccccc3)n(CCc3ccccc3)c2ncn1CCO [Compound 5] showed an IC50 [1] of 0.187 µM and an IC50 [2] of 19.2 µM.

In the case of N=c1c2c(-c3ccccc3)c(-c3ccccc3)n(CC3CC3)c2ncn1CC1CCOCC1 [Compound 134], the “PNC IC50(μM)” value [1] is reported as “inactive” and the IC50 [2] is reported as 60.7 µM.
